Source: patent US20090098209A1, “PHARMACEUTICAL CO[…]-SOLUBLE DERIVATIVES OF PROPOFOL AND METHODS OF ADMINISTERING SAME VIA PULMONARY ADMINISTRATION” (UNIVERSITY OF KANSAS, priority 2007, published 2009)

Columns and labels:
[1] = Study 1: pulmonary delivery by nebulizer and facemask, plasma propofol and sedation; format: in vivo; conditions: one male beagle dog, inhalation of 3 mL of 250 mg/mL aqueous solution over approximately 10 min
Description: (§1) A preliminary study was conducted to assess the conversion of O-phosphonooxymethyl propofol disodium salt to the pharmacologically active drug propofol following pulmonary delivery. A male beagle dog was fasted overnight prior to the study. O-phosphonooxymethyl propofol disodium salt was dissolved in water (250 mg/mL). 3-mL of the O-phosphonooxymethyl propofol disodium salt solution was delivered over approximately 10 min to the dog via inhalation through a nebulizer connected to a facemask that was placed over the dog's muzzle. The actual dose of O-phosphonooxymethyl propofol disodium salt delivered to the dog is less than the dose nebulized due to vapor loss during exhalation. Two mL blood samples were collected via a catheter placed in the cephalic vein prior to the study. Samples were collected for 1.5 hours post-dose at 5, 10, 20, 30, 40, 50, 60 and 90 minutes after initiation of delivery by inhalation. The concentration of propofol in the blood samples was determined using HPLC with fluorescence detection.
These finding are significant, as it is known that humans are more susceptible to the affects of propofol than dogs. Therefore, the onset of action would be very rapid in humans.

[2] = Study 2: pulmonary delivery by nebulizer for a defined time (10 min), plasma propofol and sedation; format: in vivo; conditions: three male beagle dogs, 250 mg/mL aqueous solution nebulized for 10 min
Description: as §1, with “A second” for “A preliminary”, “delivery. The study design was essentially the same as Study 1 above except that the O-phosphonooxymethyl propofol disodium salt solution was nebulized for a defined period of time (10 min) instead of to complete nebulization of the solution. Three” for “delivery. A”, “beagle dogs” for “beagle dog”, “mg/mL). The” for “mg/mL). 3-mL of the”, “delivered for” for “delivered over approximately”
These finding are significant, as it is known that humans are more susceptible to the effects of propofol than dogs. […]

[3] = sample at 5 minutes post dose initiation, HPLC with fluorescence detection

## CC(C)c1cccc(C(C)C)c1OCOP(=O)([O-])[O-].[Na+].[Na+] [O-phosphonooxymethyl propofol disodium salt]
[1]
  signs of sedation, time after the completion of the inhaled dose: approximately 15 minutes
[1]; [3]
  concentration of propofol in the plasma, first blood sample: significant concentration of propofol in the plasma
[2]
  signs of sedation, time after the completion of the inhaled dose: 10 to 15 min
[2]; [3]
  concentration of propofol in the plasma, first blood sample: significant concentration of propofol in the plasma
